Patent publication US20250376689A1, “OLIGONUCLEOTIDES HAVING 6-THIO-2'-DEOXYGUANOSINE RESIDUES AND USES THEREOF” (City of Hope, priority 2021, published 2025)

How the values were obtained:
[1] = test system: TBK1 signaling downstream from STING; assay: Western blot of activated and total TBK1 in DCs co-cultured with pretreated RM9 cells; type: cell-based, mouse
Procedure: FIG. 8A: RM9 prostate cancer cells were treated with a combination of 5 μM 6tdG and 1 μM CpG, 1 μM CpG(6tdG)6-p or PBS overnight, washed and incubated for the additional 3 days in fresh media. The dying cancer cells were then harvested and co-cultured for 18 h with freshly isolated, mouse primary splenic DC at a ratio of 1:10. The percentages of activated DCs (CD11c+MHC II+/CD80+ or CD86+) were analyzed by flow cytometry. FIG. 8B: Bone-marrow derived dendritic cells (BMDCs) were co-cultured with cancer cells in the presence of CpG alone, 6tdG alone, combination of CpG and 6tdG, or CpG(6tdG)6-p for 3 days. The expression of IFN-β mRNA was analyzed by real-time qPCR. Shown are results from three independent experiments; means±SEM (n=3); ****P<0.0001; *P<0.05 compared to the untreated group. FIG. 8C: TBK1 signaling downstream from STING is activated in primary mouse DCs co-cultured with RM9 cells pretreated using 6tdG alone, in combination with CpG or by CpG-(6tdG)6-p oligomer. The protein content of dendritic cells was analyzed using western blot to evaluate levels of activated and total TBK1. The protein levels were normalized to beta-actin and quantified densitometrically.

[2] = test system: activated T cells; assay: Viability of CD3/CD28-activated human T cells (flow cytometry); type: cell-based; conditions: human T cells activated with CD3/CD28 beads and IL-2
Procedure: (§1) PMBCs from 3 healthy donors were seeded at a density of 10^7/mL and treated with CpG alone, 6tdG alone, combination of CpG and 6tdG, CpG(6tdG)6-p, CpG(6tdG)5G for 2 days. Cell apoptosis was measured using flow cytometry after staining for Annexin V and 7AAD. Representative results obtained from 3 independent experiments; means±SEM (n=3). (FIG. 4B) Human T cells isolated from 3 healthy donor PBMCs using negative selection were activated with CD3/CD28 beads in the presence of 20 ng/mL human IL-2 to induce proliferation. After activation, T cells were incubated in the presence of CpG alone, 6tdG alone, combination of CpG and 6tdG, CpG(6tdG)6-p or CpG(6tdG)5G for the indicated times before subject to viability analysis in flow cytometry. (FIG. 4C) Activated and proliferating T cells, but not naïve/resting T cells, have high levels of telomerase activity. The telomerase activity was assayed using TRAPeze kit (EMD Millipore), a telomerase repeated amplification protocol, and PCR products were qualitatively analyzed in a PAGE gel.

[3] = test system: resting human lymphocytes; assay: Apoptosis/viability of resting human PBMCs (Annexin V/7AAD flow cytometry); type: cell-based; conditions: PBMCs from 3 healthy donors, treated 2 days
Procedure: as §1

[4] = test system: telomerase-negative normal cells; conditions: cited from earlier work

Q: Which “TBK1 signaling in primary mouse DCs” value [1] does the source give for Nc1nc2c(ncn2[C@H]2C[C@H](O)[C@@H](CO)O2)c(=S)[nH]1 [6tdG, 6-thio-2′-deoxyguanosine] here?
A: activated

Q: What about the “cytotoxicity to activated T cells” value [2] of the same molecule?
A: cytotoxic to activated T cells

Q: And the “viability of resting human lymphocytes” value [3]?
A: Neither 6tdG nor CpG-6tdG oligomers affect viability

Q: And the “cytotoxic effects on telomerase-negative normal cells” value [4]?
A: minimal cytotoxic effects
